Assay results as given in PubChem BioAssay AID256 (DTP/NCI, 2004).
“And” between values parts separate entries of the source, which are not always exact repeats. Equal values may be shown once. Inconclusive results and toxic doses are left out. How the source made its calls: active means survival T/C of 150% or more; inactive means T/C below 125% in these data.

System: CD2F1 mice, L1210 leukemia ip, survival T/C
Experiment: NCI In Vivo Anticancer Drug Screen. Data for tumor model L1210 Leukemia (intraperitoneal) in CD2F1 (CDF1) mice
Settings: higher = longer survival
How it was run: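 Mice carrying a transplanted tumor received test compound or vehicle alone. The value is the measurement in the treated group divided by that in the vehicle-treated control group.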

[1] = endpoint: mean survival time, dose: 50.0 mg/kg/injection, schedule: Q04DX003 (ip), vehicle: saline with Tween-80
[2] = endpoint: mean survival time, dose: 100.0 mg/kg/injection, schedule: Q04DX003 (ip), vehicle: saline with Tween-80
[3] = endpoint: mean survival time, dose: 50.0 mg/kg/injection, schedule: Q01DX009 (ip), vehicle: Klucel (hydroxypropylcellulose) (HPC)
[4] = endpoint: mean survival time, dose: 100.0 mg/kg/injection, schedule: Q01DX009 (ip), vehicle: Klucel (hydroxypropylcellulose) (HPC)
[5] = endpoint: mean survival time, dose: 200.0 mg/kg/injection, schedule: Q01DX009 (ip), vehicle: Klucel (hydroxypropylcellulose) (HPC)
[6] = endpoint: mean survival time, dose: 12.5 mg/kg/injection, schedule: Q01DX005 (ip), vehicle: water
[7] = endpoint: mean survival time, dose: 25.0 mg/kg/injection, schedule: Q01DX005 (ip), vehicle: water
[8] = endpoint: mean survival time, dose: 50.0 mg/kg/injection, schedule: Q01DX005 (ip), vehicle: water
[9] = endpoint: mean survival time, dose: 50.0 mg/kg/injection, schedule: Q01DX009 (ip), vehicle: saline with Tween-80
[10] = endpoint: mean survival time, dose: 100.0 mg/kg/injection, schedule: Q01DX009 (ip), vehicle: saline with Tween-80
[11] = endpoint: mean survival time, dose: 200.0 mg/kg/injection, schedule: Q04DX003 (ip), vehicle: saline with Tween-80
[12] = endpoint: mean survival time, dose: 400.0 mg/kg/injection, schedule: Q04DX003 (ip), vehicle: saline with Tween-80

Measured: T/C

CSc1ccc(C(c2ccc(SC)cc2)C(Cl)(Cl)Cl)cc1
inactive: [1] 91 % of control | [2] 89 % of control

CCOC(=O)CC(Cc1cc(OC)ccc1OC)(C(C)=O)C(C)=O
inactive: endpoint: mean survival time, dose: 12.5 mg/kg/injection, schedule: Q01DX009 (ip), vehicle: water 100 % of control | endpoint: mean survival time, dose: 25.0 mg/kg/injection, schedule: Q01DX009 (ip), vehicle: water 110 % of control | endpoint: mean survival time, dose: 50.0 mg/kg/injection, schedule: Q01DX009 (ip), vehicle: water 102 % of control | endpoint: mean survival time, dose: 100.0 mg/kg/injection, schedule: Q01DX009 (ip), vehicle: water 95 % of control | endpoint: mean survival time, dose: 200.0 mg/kg/injection, schedule: Q01DX009 (ip), vehicle: water 114 % of control

Nc1ccc(Br)cc1-c1nc(N)c2cc(Br)ccc2n1
inactive: [3] 104 % of control | endpoint: mean survival time, dose: 100.0 mg/kg/injection, schedule: Q01DX001 (ip), vehicle: Klucel (hydroxypropylcellulose) (HPC) 93 % of control | [4] 89 % of control | endpoint: mean survival time, dose: 200.0 mg/kg/injection, schedule: Q01DX001 (ip), vehicle: Klucel (hydroxypropylcellulose) (HPC) 103 % of control | [5] 100 % of control | endpoint: mean survival time, dose: 400.0 mg/kg/injection, schedule: Q01DX001 (ip), vehicle: Klucel (hydroxypropylcellulose) (HPC) 100 % of control

C1CCC(C2CCCC[N-]2)[N-]C1.C1CCC(C2CCCC[N-]2)[N-]C1.O=N[O-].O=N[O-].[Ru+4] (stereo unspecified)
inactive: endpoint: mean survival time, dose: 3.13 mg/kg/injection, schedule: Q04DX003 (ip), vehicle: distilled water + Tween-80 90 % of control | endpoint: mean survival time, dose: 6.25 mg/kg/injection, schedule: Q04DX003 (ip), vehicle: distilled water + Tween-80 95 % of control | endpoint: mean survival time, dose: 12.5 mg/kg/injection, schedule: Q04DX003 (ip), vehicle: distilled water + Tween-80 95 % of control | endpoint: mean survival time, dose: 25.0 mg/kg/injection, schedule: Q04DX003 (ip), vehicle: distilled water + Tween-80 93 % of control | endpoint: mean survival time, dose: 50.0 mg/kg/injection, schedule: Q04DX003 (ip), vehicle: distilled water + Tween-80 92 % of control | endpoint: mean survival time, dose: 100.0 mg/kg/injection, schedule: Q04DX003 (ip), vehicle: distilled water + Tween-80 90 % of control | endpoint: mean survival time, dose: 200.0 mg/kg/injection, schedule: Q04DX003 (ip), vehicle: distilled water + Tween-80 90 % of control

O=P(OCc1ccccc1)(N(CCCl)CCCl)N1CCCCC1 (stereo unspecified)
inactive: endpoint: mean survival time, dose: 62.5 mg/kg/injection, schedule: Q01DX010 (ip), vehicle: saline 98 % of control | endpoint: mean survival time, dose: 125.0 mg/kg/injection, schedule: Q01DX010 (ip), vehicle: saline 101 % of control | endpoint: mean survival time, dose: 250.0 mg/kg/injection, schedule: Q01DX010 (ip), vehicle: saline 90 % of control

C=CCOc1c(C)cc(C(C)(C)c2cc(C)c(OCC=C)c(C)c2)cc1C
inactive: endpoint: mean survival time, dose: 25.0 mg/kg/injection, schedule: Q01DX001 (ip), vehicle: other 104 % of control | endpoint: mean survival time, dose: 50.0 mg/kg/injection, schedule: Q01DX001 (ip), vehicle: other 103 % of control | endpoint: mean survival time, dose: 100.0 mg/kg/injection, schedule: Q01DX001 (ip), vehicle: other 94 % of control and 97 % of control | endpoint: mean survival time, dose: 400.0 mg/kg/injection, schedule: Q01DX001 (ip), vehicle: other 96 % of control

NC(=O)c1cc(C(N)=O)n(C2OC(CO)C(O)C2O)n1 (stereo unspecified)
inactive: [6] 100 % of control | [7] 100 % of control | [8] 92 % of control | endpoint: mean survival time, dose: 100.0 mg/kg/injection, schedule: Q01DX005 (ip), vehicle: water 107 % of control | endpoint: mean survival time, dose: 200.0 mg/kg/injection, schedule: Q01DX005 (ip), vehicle: water 96 % of control

S=C(Nc1ccc(Cl)c(Cl)c1)N1c2ccccc2-n2cccc2C1c1cccnc1 (stereo unspecified)
inactive: endpoint: mean survival time, dose: 12.5 mg/kg/injection, schedule: Q01DX009 (ip), vehicle: Klucel (hydroxypropylcellulose) (HPC) 96 % of control and 104 % of control | endpoint: mean survival time, dose: 25.0 mg/kg/injection, schedule: Q01DX009 (ip), vehicle: Klucel (hydroxypropylcellulose) (HPC) 98 % of control and 105 % of control | [3] 104 % of control and 109 % of control | [4] 113 % of control and 114 % of control and 107 % of control | [5] 115 % of control and 120 % of control and 123 % of control | endpoint: mean survival time, dose: 400.0 mg/kg/injection, schedule: Q01DX009 (ip), vehicle: Klucel (hydroxypropylcellulose) (HPC) 112 % of control

CCC(CC)C(O)CC(O)CC(C)C (stereo unspecified)
inactive: endpoint: mean survival time, dose: 25.0 mg/kg/injection, schedule: Q01DX009 (ip), vehicle: other 97 % of control | endpoint: mean survival time, dose: 50.0 mg/kg/injection, schedule: Q01DX009 (ip), vehicle: other 103 % of control | endpoint: mean survival time, dose: 100.0 mg/kg/injection, schedule: Q01DX009 (ip), vehicle: other 97 % of control | endpoint: mean survival time, dose: 100.0 mg/kg/injection, schedule: Q04DX003 (ip), vehicle: other 86 % of control | endpoint: mean survival time, dose: 400.0 mg/kg/injection, schedule: Q04DX003 (ip), vehicle: other 94 % of control

F[Si](c1ccc(Br)cc1)(c1ccc(Br)cc1)c1ccc(Br)cc1
inactive: [9] 102 % of control | [10] 94 % of control | [2] 95 % of control | [11] 93 % of control

CCCCCCCC(=O)O[C@H]1[C@H]2[C@@H](CC1(C)C)C(=O)[C@]13O[C@H]1C(=O)[C@]1(CO1)[C@]23C
inactive: endpoint: median survival time, dose: 1.25 mg/kg/injection, schedule: Q01DX009 (ip), vehicle: saline with Tween-80 101 % of control | endpoint: median survival time, dose: 2.5 mg/kg/injection, schedule: Q01DX009 (ip), vehicle: saline with Tween-80 104 % of control | endpoint: median survival time, dose: 5.0 mg/kg/injection, schedule: Q01DX009 (ip), vehicle: saline with Tween-80 104 % of control | endpoint: median survival time, dose: 10.0 mg/kg/injection, schedule: Q01DX009 (ip), vehicle: saline with Tween-80 107 % of control | endpoint: median survival time, dose: 20.0 mg/kg/injection, schedule: Q01DX009 (ip), vehicle: saline with Tween-80 107 % of control

O=[N+]([O-])c1cc(F)ccc1O
inactive: [10] 96 % of control

CC(C)(C)C1CCC(OC(=O)c2ccccc2C(=O)O)CC1 (stereo unspecified)
inactive: [10] 100 % of control | [2] 100 % of control | endpoint: mean survival time, dose: 200.0 mg/kg/injection, schedule: Q01DX009 (ip), vehicle: saline with Tween-80 97 % of control | [11] 98 % of control | endpoint: mean survival time, dose: 400.0 mg/kg/injection, schedule: Q01DX009 (ip), vehicle: saline with Tween-80 89 % of control | [12] 96 % of control

CC(=O)Nc1cc(NC(C)=O)cc(N(CCCl)CCCl)c1
inactive: [6] 100 % of control | [7] 106 % of control | [8] 101 % of control

N#CCN(CC#N)CC#N
inactive: endpoint: mean survival time, dose: 1.56 mg/kg/injection, schedule: Q01DX009 (ip), vehicle: saline 97 % of control | endpoint: mean survival time, dose: 3.13 mg/kg/injection, schedule: Q01DX009 (ip), vehicle: saline 92 % of control | endpoint: mean survival time, dose: 6.25 mg/kg/injection, schedule: Q01DX009 (ip), vehicle: saline 100 % of control

O=C1OC(=O)c2c1ccc1c(O)cccc21
inactive: endpoint: mean survival time, dose: 100.0 mg/kg/injection, schedule: Q01DX001 (ip), vehicle: saline with Tween-80 101 % of control | endpoint: mean survival time, dose: 200.0 mg/kg/injection, schedule: Q01DX001 (ip), vehicle: saline with Tween-80 90 % of control | endpoint: mean survival time, dose: 400.0 mg/kg/injection, schedule: Q01DX001 (ip), vehicle: saline with Tween-80 108 % of control

CN=S(=O)(OCCCCCOS(=O)(=NC)c1ccccc1)c1ccccc1 (stereo unspecified)
inactive: endpoint: mean survival time, dose: 12.5 mg/kg/injection, schedule: Q01DX009 (ip), vehicle: saline with Tween-80 103 % of control | endpoint: mean survival time, dose: 25.0 mg/kg/injection, schedule: Q01DX009 (ip), vehicle: saline with Tween-80 106 % of control | [9] 103 % of control | [10] 106 % of control

CC(=O)N(C(C)=O)c1ccc2c3c(cccc13)CC2
inactive: [1] 110 % of control | [2] 104 % of control | [11] 101 % of control

O=C(O)C1C2C=CC(C2)C1C(=O)O (stereo unspecified)
inactive: [2] 97 % of control | [11] 92 % of control | [12] 98 % of control

COC(=O)CC(CC(=O)OC)N1CCCC1
inactive: endpoint: mean survival time, dose: 100.0 mg/kg/injection, schedule: Q01DX001 (ip), vehicle: saline 102 % of control | endpoint: mean survival time, dose: 200.0 mg/kg/injection, schedule: Q01DX001 (ip), vehicle: saline 102 % of control | endpoint: mean survival time, dose: 400.0 mg/kg/injection, schedule: Q01DX001 (ip), vehicle: saline 102 % of control

COc1cccc(N=Nc2c(N)nc(N)nc2N)c1
inactive: [9] 97 % of control

CCOC(=O)C(C)C(=O)O (stereo unspecified)
inactive: endpoint: mean survival time, dose: 50.0 mg/kg/injection, schedule: Q01DX009 (ip), vehicle: saline 97 % of control | endpoint: mean survival time, dose: 100.0 mg/kg/injection, schedule: Q01DX009 (ip), vehicle: saline 98 % of control | endpoint: mean survival time, dose: 100.0 mg/kg/injection, schedule: Q04DX003 (ip), vehicle: saline 98 % of control | endpoint: mean survival time, dose: 200.0 mg/kg/injection, schedule: Q01DX009 (ip), vehicle: saline 98 % of control | endpoint: mean survival time, dose: 200.0 mg/kg/injection, schedule: Q04DX003 (ip), vehicle: saline 96 % of control

COC(=O)C(Cl)c1ccc2c(c1)OCO2 (stereo unspecified)
inactive: [9] 96 % of control | [10] 96 % of control | [2] 96 % of control | [11] 93 % of control
